# Test results as given in patent US20210060016A1, “ANTICANCER AGENT” (JAPANESE FOUNDATION FOR CANCER RESEARCH, priority 2017, published 2021).
# Assays:
# [1] = tested on: human colorectal cancer cell line COLO-320DM; assay: MTT assay, combination of test compound and other anticancer agents; format: cell-based
# Procedure: The ratio of residual cells in treatment of the human colorectal cancer cell line COLO-320DM with a combination of the compound prepared in each Compound Example (test compound or tankyrase inhibitory compound) and each of the anticancer agents was measured to evaluate the cell killing effect of the combination on the human colorectal cancer cell line COLO-320DM. The combinations of test compounds and anticancer agents are as follows.
# (Example 8): combination of the compound prepared in Compound Example 5 and temozolomide, melphalan, gemcitabine, cytarabine (Ara-C), fluorouracil (5-FU), pemetrexed, mercaptopurine, methotrexate, irinotecan (SN-38), etoposide (VP-16), actinomycin D, daunorubicin, doxorubicin, bleomycin, mitoxantrone, oxaliplatin, carboplatin or cisplatin (Example 9): combination of the compound prepared in Compound Example 110 (G007-LK) and irinotecan (SN-38) (Example 10): combination of the compound prepared in Compound Example 11 and irinotecan (SN-38) (Example 11): combination of the compound prepared in Compound Example 19 and irinotecan (SN-38) (Example 12): combination of the compound prepared in Compound Example 101 and irinotecan (SN-38) (Example 13): combination of the compound prepared in Compound Example 1 and irinotecan (SN-38) (Example 14): combination of the compound prepared in Compound Example 113 and irinotecan (SN-38)
# Commercially available compounds were used for temozolomide (manufactured by Sigma-Aldric), melphalan (manufactured by Signa-Aldrich), gemcitabine (Gemcitabine hydrochloride; manufactured by Sigma-Aldric), cytarabine (Cytosine β-D-arabinofuranoside (Ara-C); manufactured by Sigma-Aldrich), fluorouracil (5-Fluorouracil (5-FU); manufactured by Sigma-Aldrich), pemetrexed (Pemetrexed disodium heptahydrate; manufactured by Sigma-Aldrich), mercaptopurine (6-Mercaptopurine monohydrate; manufactured by Sigma-Aldrich), methotrexate (Methotrexate hydrate; manufactured by Sigma-Aldrich), irinotecan (7-Ethyl-10-hydroxycamptothecin (SN-38); manufactured by Sigma-Aldrich), etoposide (Etoposide (VP-16); manufactured by Enzo Life Sciences, Inc.), actinomycin D (manufactured by nacalai tesque), daunorubicin (Daunorubicin hydrochloride; Calbiochem), doxorubicin (Doxorubicin hydrochloride; manufactured by Sigma-Aldrich), bleomycin (Bleomycin sulfate; manufactured by Enzo Life Sciences, Inc.), mitoxantrone (Mitoxantrone dihydrochloride; manufactured by Sigma-Aldrich), oxaliplatin (manufactured by Sigma-Aldrich), carboplatin (manufactured by Sigma-Aldrich) and cisplatin (manufactured by Enzo Life Sciences, Inc.).
# First, the human colorectal cancer cell line COLO-320DM was suspended in RPMI1640 medium (hereinafter, medium) containing inactivated 10% fetal bovine serum, and the cells were seeded in a 96-well microplate at 350 cells (75 μL) per well. The cells were subjected to stationary culture overnight in a CO2 incubator at 37° C. Thereafter, in Example 8, a medium (25 μL) containing a combination of the compound prepared in Compound Example 5 and each of the anticancer agents was added in triplicate in such a manner that the final concentrations of the test compound (compound prepared in Compound Example 5) were 0 nM or 30 nM and that the final concentrations of each anticancer agent were those shown in Table 14. In Examples 9 to 14, a medium (25 μL) containing a combination of the compound prepared in each of Compound Examples and each of the anticancer agents was added in triplicate in such a manner that the final concentrations of the test compound were 0 nM or those shown in FIGS. 9 to 14. As a control, 25 μL of a medium containing only dimethyl sulfoxide (DMSO) which is a solvent was added. […]
# [2] = molecular target: T1, tankyrase-2 (Homo sapiens, UniProt Q9H2K2); assay: X-ray diffraction of tankyrase-2 crystal soaked with the compound; format: binding
# T1 sequence (Q9H2K2 1-1166): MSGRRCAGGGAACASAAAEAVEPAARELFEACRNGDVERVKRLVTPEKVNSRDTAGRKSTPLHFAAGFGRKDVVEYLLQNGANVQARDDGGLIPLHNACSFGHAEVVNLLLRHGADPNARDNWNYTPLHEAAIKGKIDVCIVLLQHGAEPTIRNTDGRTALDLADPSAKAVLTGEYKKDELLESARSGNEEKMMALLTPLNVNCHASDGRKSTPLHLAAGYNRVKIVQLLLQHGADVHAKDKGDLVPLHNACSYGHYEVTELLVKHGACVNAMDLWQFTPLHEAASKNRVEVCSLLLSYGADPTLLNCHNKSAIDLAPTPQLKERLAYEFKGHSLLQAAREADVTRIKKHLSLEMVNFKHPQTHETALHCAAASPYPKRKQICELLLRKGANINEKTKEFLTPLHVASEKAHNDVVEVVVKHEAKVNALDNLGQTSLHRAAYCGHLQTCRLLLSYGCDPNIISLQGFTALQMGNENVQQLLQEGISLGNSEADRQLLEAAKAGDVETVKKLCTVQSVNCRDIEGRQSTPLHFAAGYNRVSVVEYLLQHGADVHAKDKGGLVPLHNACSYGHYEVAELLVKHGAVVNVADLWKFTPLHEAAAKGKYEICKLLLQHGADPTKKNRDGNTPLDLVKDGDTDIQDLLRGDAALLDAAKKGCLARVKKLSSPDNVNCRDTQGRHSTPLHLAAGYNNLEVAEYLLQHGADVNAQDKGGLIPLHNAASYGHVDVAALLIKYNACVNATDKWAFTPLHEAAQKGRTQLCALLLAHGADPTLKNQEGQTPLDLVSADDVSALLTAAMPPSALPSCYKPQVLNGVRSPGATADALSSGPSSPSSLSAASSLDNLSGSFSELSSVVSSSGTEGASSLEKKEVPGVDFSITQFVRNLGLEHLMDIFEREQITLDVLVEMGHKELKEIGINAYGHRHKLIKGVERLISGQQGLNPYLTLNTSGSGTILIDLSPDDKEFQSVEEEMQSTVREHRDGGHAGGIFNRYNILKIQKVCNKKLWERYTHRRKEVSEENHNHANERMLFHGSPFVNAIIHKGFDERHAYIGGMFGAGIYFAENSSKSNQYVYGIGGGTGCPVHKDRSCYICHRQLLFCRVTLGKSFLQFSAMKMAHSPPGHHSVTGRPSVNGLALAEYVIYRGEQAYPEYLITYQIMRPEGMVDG
# From the text: In the present invention, whether the tankyrase inhibitory compound is a nicotinamide-type compound or an adenosine-type compound can be determined by X-ray diffraction, more specifically a method in which a complex is crystallized from a mixed liquid of a tankyrase crystal prepared beforehand and the tankyrase inhibitory compound, and subjected to X-ray diffraction (soaking method), or a method in which a complex is crystallized from a mixed liquid having the tankyrase inhibitory compound coexisting with tankyrase in a state before the crystallization, and subjected to X-ray diffraction (co-crystallization). Whether the tankyrase inhibitory compound is a dual-type compound can be determined by preparing a crystal under any one of the above-described conditions, and performing X-ray diffraction.
# X-ray diffraction data of a tankyrase-2 crystal soaked with the compound prepared in Compound Example 1 was measured with BL26B2 Beam Line in a large synchrotron radiation facility Spring-8 (Sayo-gun, Hyogo). The wavelength of the X-ray was 1.000 Å, and MX-225 (Rayonix, LLC) was used as a detector. The diffraction data was treated with XDS (Kabsch, 2010) and the CCP4 program (Winn et al., 2011).
# [3] = Examples 9 to 14, COLO-320DM: test compound added at the concentration shown in FIGS. 9 to 14 to irinotecan (SN-38), survival with only irinotecan = 100%
SMILES,"cell survival rate ([1]; Example 8, COLO-320DM: test compound further added at 30 nM to each anticancer agent (temozolomide ... cisplatin), survival with only the anticancer agent = 100%)","cell survival rate [1, 3]",binding pocket type by X-ray diffraction [2]
"CN1CCN(c2cc(F)c3c(c2)N(C)C(=O)C32CCN(c3nc4c(c(=O)[nH]3)CCCN4C)CC2)CC1 [compound 5, 4-Fluoro-1-methyl-1′-(8-methyl-4-oxo-3,4,5,6,7,8-hexahydropyrido [2,3-d]pyrimidin-2-yl)-6-(4-methylpiperazin-1-yl)spiro [indolin-3,4′-piperidin]-2-one]",about 50%,,
C[C@@H]1CN(c2cc(F)c3c(c2)N(C)C(=O)C32CCN(c3nc4c(c(=O)[nH]3)CCCN4C)CC2)C[C@H](C)O1 [compound 19],,about 50%,
"CN1CCCc2c1nc(N1CCC3(CC1)C(=O)N(C)c1cc(N4CCC(C(=O)O)CC4)cc(F)c13)[nH]c2=O [compound 11, 1-[4-Fluoro-1-methyl-1′-(8-methyl-4-oxo-3,4,5,6,7,8-hexahydropyrido [2,3-d]pyrimidin-2-yl)-2-oxospiro[indolin-3,4′-piperidin]-6-yl]piperidin-4-carboxylic acid]",,about 50%,
"O=c1[nH]c(N2CCC3(CC2)CN(CCO)c2cc(F)cc(F)c23)nc2c1CCCC2 [compound 1, 2-[4,6-Difluoro-1-(2-hydroxyethyl)spiro [indolin-3,4′-piperidin]-1′-yl]-5,6,7,8-tetrahydroquinazolin-4(3H)-one]",,about 50%,nicotinamide-type compound which binds to the nicotinamide binding pocket of tankyrase
